In brackets after ≈: the same amount, converted by molar mass.
Legend:
Format in all cases: functional, organism-based
[1] = tested on: Plasmodium falciparum; assay: In vitro antimalarial activity against Plasmodium falciparum D6 Sierra Leone relative to artemisinin
[2] = tested on: Plasmodium falciparum; assay: In vitro antimalarial activity against Plasmodium falciparum W-2 (Indochina)
[3] = tested on: Plasmodium falciparum; assay: In vitro antimalarial activity relative to artemisinin against Plasmodium falciparum W-2 (Indochina)
[4] = tested on: Plasmodium falciparum; assay: In vitro antimalarial activity against Plasmodium falciparum D6 Sierra Leone
[5] = tested on: Plasmodium falciparum; assay: In vitro antimalarial activity against Plasmodium falciparum W-2 (Indochina) relative to artemisinin; Not active at <5000 ng/mL
[6] = tested on: Plasmodium falciparum; assay: In vitro antimalarial activity relative to artemisinin against Plasmodium falciparum W2 (Indochina); Not active <= 5000 ng/mL
[7] = tested on: Plasmodium falciparum; assay: In vitro antimalarial activity against Plasmodium falciparum D6 (Sierra Leone); Not active <= 5000 ng/mL
[8] = tested on: Plasmodium falciparum; assay: In vitro antimalarial activity against Plasmodium falciparum D-6 Sierra Leone relative to artemisinin; Not active <= 5000 ng/mL

Q: With `C=C1C2CC[C@@H](C)C3CC[C@@]4(C)OO[C@@]23[C@H](O[C@@H]1OO)O4` (stereo partly drawn) as the compound, how does the IC50 ratio [1] read?
A: 2

Q: What about the IC50 [2] of the same compound?
A: 8.12 ng/mL (≈ 0.0272 µM)

Q: What about the IC50 ratio [3] of the same compound?
A: 8

Q: What about the IC50 [4] of the same compound?
A: 4.08 ng/mL (≈ 0.0137 µM)

Q: What does the source list for `C[C@@H]1CCC2[C@]34OO[C@](C)(CCC13)O[C@H]4OC(=O)[C@@]21CCN=N1` (stereo partly drawn)?
A: IC50 ratio [1]: 280; IC50 [2]: 447 ng/mL (≈ 1.39 µM); IC50 ratio [3]: 408; IC50 [4]: 604 ng/mL (≈ 1.87 µM)

Q: Which IC50 ratio [1] does the source give for `C[C@@H]1CCC2[C@]34OO[C@](C)(CCC13)O[C@H]4OC(=O)[C@@]2(Br)CBr` (stereo partly drawn) here?
A: 26

Q: And the IC50 [2]?
A: 67 ng/mL (≈ 0.152 µM)

Q: And the IC50 ratio [3]?
A: 44

Q: And the IC50 [4]?
A: 77 ng/mL (≈ 0.175 µM)

Q: How did the IC50 ratio [1] turn out when `C[C@@H]1CCC2[C@]34OO[C@](C)(CCC13)O[C@H]4O[C@H](OO)[C@@]21CO1` (stereo partly drawn) was run?
A: 1.3

Q: And the IC50 [2]?
A: 4.5 ng/mL (≈ 0.0143 µM)

Q: What about the IC50 ratio [3] of the same compound?
A: 4.2

Q: And the IC50 [4]?
A: 2.8 ng/mL (≈ 0.00891 µM)

Q: `C[C@@H]1CCC2[C@]34OO[C@](C)(CCC13)O[C@H]4OC(=O)[C@]21CO1` (stereo partly drawn) was tested. Which IC50 [5] did it give?
A: Not Active

Q: What about the IC50 [6] of the same compound?
A: Not Active

Q: And the IC50 [7]?
A: Not Active

Q: And the IC50 [8]?
A: Not Active

Q: What does the source list for `CSC1=NN=C2C3CC[C@@H](C)C4CC[C@@]5(C)OO[C@@]34[C@H](OC2(O)S1)O5` (stereo partly drawn)?
A: IC50 ratio [1]: 305; IC50 [2]: 564 ng/mL (≈ 1.46 µM); IC50 ratio [3]: 429; IC50 [4]: 789 ng/mL (≈ 2.04 µM)

Q: What does the source list for `C[C@@H]1CCC2[C@]34OO[C@](C)(CCC13)O[C@H]4O[C@H](OO)[C@]21CO1` (stereo partly drawn)?
A: IC50 ratio [1]: 0.9; IC50 [2]: 4 ng/mL (≈ 0.0127 µM); IC50 ratio [3]: 3.7; IC50 [4]: 2 ng/mL (≈ 0.00636 µM)

Q: `C[C@@H]1CCC2[C@]34OO[C@](C)(CCC13)O[C@H]4OC(=O)[C@@]21CO1` (stereo partly drawn) was tested. Which IC50 ratio [1] did it give?
A: 48

Q: And the IC50 [2]?
A: 124 ng/mL (≈ 0.418 µM)

Q: And the IC50 ratio [3]?
A: 123

Q: What about the IC50 [4] of the same compound?
A: 96 ng/mL (≈ 0.324 µM)

Q: What does the source list for `C[C@@H]1CCC2C(=O)C(=O)O[C@@H]3O[C@@]4(C)CCC1[C@@]23OO4` (stereo partly drawn)?
A: IC50 ratio [1]: 169; IC50 [2]: 278 ng/mL (≈ 0.985 µM); IC50 ratio [3]: 290; IC50 [4]: 319 ng/mL (≈ 1.13 µM)

Q: Which results are given for `C[C@@H]1CCC2C3(CC3)C(=O)O[C@@H]3O[C@@]4(C)CCC1[C@@]23OO4` (stereo partly drawn)?
A: IC50 ratio [1]: 5.2; IC50 [2]: 8.6 ng/mL (≈ 0.0292 µM); IC50 ratio [3]: 8.6; IC50 [4]: 10 ng/mL (≈ 0.034 µM)

Q: Which results are given for `C[C@@H]1CCC2[C@]34OO[C@](C)(CCC13)O[C@H]4OC(=O)[C@@]2(O)CO` (stereo partly drawn)?
A: IC50 [5]: Not Active; IC50 [6]: Not Active; IC50 [7]: Not Active; IC50 [8]: Not Active

Q: With `C[C@@H]1CCC2[C@@]3(CO3)C(O)O[C@@H]3O[C@@]4(C)CCC1[C@@]23OO4` (stereo partly drawn) as the compound, how does the IC50 ratio [1] read?
A: 0.9

Q: And the IC50 [2]?
A: 3.4 ng/mL (≈ 0.0114 µM)

Q: And the IC50 ratio [3]?
A: 3.4

Q: And the IC50 [4]?
A: 1.8 ng/mL (≈ 0.00603 µM)

Q: What does the source list for `C[C@@H]1CCC2[C@H](O)[C@H](O)O[C@@H]3O[C@@]4(C)CCC1[C@@]23OO4` (stereo partly drawn)?
A: IC50 ratio [1]: 3.8; IC50 [2]: 7.4 ng/mL (≈ 0.0258 µM); IC50 ratio [3]: 7.6; IC50 [4]: 7.3 ng/mL (≈ 0.0255 µM)

Q: Which IC50 ratio [1] does the source give for `C/C=C1\C(=O)O[C@@H]2O[C@@]3(C)CCC4[C@H](C)CC[C@@H]1[C@]42OO3` (stereo partly drawn) here?
A: 1.1

Q: What about the IC50 [2] of the same compound?
A: 2.3 ng/mL (≈ 0.00781 µM)

Q: What about the IC50 ratio [3] of the same compound?
A: 2.3

Q: What about the IC50 [4] of the same compound?
A: 2.1 ng/mL (≈ 0.00713 µM)

Q: Which IC50 ratio [1] does the source give for `C=C1C2CC[C@@H](C)C3CC[C@@]4(C)OO[C@@]23[C@H](O[C@@H]1O)O4` (stereo partly drawn) here?
A: 63

Q: What about the IC50 [2] of the same compound?
A: 232 ng/mL (≈ 0.822 µM)

Q: And the IC50 ratio [3]?
A: 242

Q: And the IC50 [4]?
A: 119 ng/mL (≈ 0.421 µM)

Q: For `C[C@@H]1CC[C@H]2[C@@H](C)C(=O)O[C@@H]3O[C@@]4(C)CC[C@@H]1[C@]32OO4` [ARTEMISININ], which IC50 ratio [1] is on record?
A: 1

Q: What about the IC50 [2] of the same compound?
A: 0.95 ng/mL (≈ 0.00336 µM)

Q: And the IC50 ([3]; Plasmodium falciparum)?
A: 1 ng/mL (≈ 0.00354 µM)

Q: And the IC50 [4]?
A: 1.89 ng/mL (≈ 0.00669 µM)

Q: With `C=C1C(=O)O[C@@H]2O[C@@]3(C)CC[C@H]4[C@H](C)CC[C@@H]1[C@@]24OO3` [ARTEMISITENE] as the compound, how does the IC50 ratio [1] read?
A: 2.8

Q: What about the IC50 [2] of the same compound?
A: 7.44 ng/mL (≈ 0.0265 µM)

Q: And the IC50 ratio [3]?
A: 7.8

Q: What about the IC50 [4] of the same compound?
A: 5.3 ng/mL (≈ 0.0189 µM)
